Experimental data from publication PMC6835510, “Magnificamide, a β-Defensin-Like Peptide from the Mucus of the Sea Anemone Heteractis magnifica, Is a Strong Inhibitor of Mammalian α-Amylases” (Marine Drugs, 2019).
Bridge positions count the residues as written; N and C are the ends. Ends that are not written are not given here.

Legend:
[1] = test system: Bacillus subtilis ATCC6633; test: Antimicrobial activity, agar dilution method; assay type: cell-based; conditions: 1, 5, 10, 20 µM; 100 µL in 6 mm agar wells; 18 h, 37 °C; clear zone; three independent assays
Protocol: (§1) The antimicrobial activity of r-magnificamide was tested against Gram-positive (Staphylococcus aureus ATCC 21027 and Bacillus subtilis ATCC6633), Gram-negative bacteria (Escherichia coli VKPM B-7935 and Pseudomonas aeruginosa ATCC 27853), and the fungus Candida albicans KMM 455 by the agar dilution method. Microbial strains were taken from the American Type Culture Collection (ATCC), Russian National Collection of Industrial Microorganisms (VKPM), and Collection of Marine Microorganisms (KMM) (Pacific Institute of Bioorganic Chemistry FEB RAS). To obtain a microbial lawn, 0.1 mL of a cell suspension (0.5 × 10^8 cells/mL) was uniformly distributed on agar surface in Petri dishes (15 g/L tryptic soy broth, 2 g/L bacto yeast extract, 1 g/L glucose, and 20 g/L agar for bacteria; for fungi 10 g/L of glucose was added). Wells with a diameter of 6 mm were punched into the agar and filled with 100 µL of the peptide solution at concentrations 1, 5, 10, and 20 µM. The plates were then incubated for 18 h at 37 °C for bacteria, and at 30 °C for the fungus. Minimum inhibitory concentration was determined by measuring the clear zone of inhibition around each well. All assays were performed independently three times.

[2] = test system: Candida albicans KMM 455; test: Antimicrobial activity, agar dilution method; assay type: cell-based; conditions: 1, 5, 10, 20 µM; 100 µL in 6 mm agar wells; 18 h, 30 °C; clear zone; three independent assays
Protocol: as §1

[3] = test system: Escherichia coli VKPM B-7935; test: Antimicrobial activity, agar dilution method; assay type: cell-based; conditions: 1, 5, 10, 20 µM; 100 µL in 6 mm agar wells; 18 h, 37 °C; clear zone; three independent assays
Protocol: as §1

[4] = test system: Pseudomonas aeruginosa ATCC 27853; test: Antimicrobial activity, agar dilution method; assay type: cell-based; conditions: 1, 5, 10, 20 µM; 100 µL in 6 mm agar wells; 18 h, 37 °C; clear zone; three independent assays
Protocol: as §1

[5] = test system: Staphylococcus aureus ATCC 21027; test: Antimicrobial activity, agar dilution method; assay type: cell-based; conditions: 1, 5, 10, 20 µM; 100 µL in 6 mm agar wells; 18 h, 37 °C; clear zone; three independent assays
Protocol: as §1

[6] = test system: fungi, Gram-positive or Gram-negative bacteria; test: Antimicrobial screening, overall; assay type: cell-based; conditions: 1, 5, 10, 20 µM
Protocol: as §1

[7] = test system: hNav1.8; test: Two-electrode voltage-clamp; assay type: cell-based, mammalian; conditions: 10 µM; Xenopus laevis oocytes; 18–22 °C
Text: (§2) For the expression of Nav channels (mammalian rNav1.2, rNav1.4, hNav1.5, mNav1.6 and hNav1.8 channels; the insect channel BgNav1 from Blattella germanica; and the auxiliary subunits rβ1, hβ1, and TipE) and Kv channels (mammalian rKv1.1, rKv1.2, hKv1.3, rKv1.4, rKv1.5, rKv1.6, rKv2.1, hKv3.1, rKv4.2, hKv10.1, and hERG; and Drosophila Shaker’s IR) in Xenopus laevis oocytes; the linearized plasmids were transcribed using the T7 or SP6 mMESSAGE-mMACHINE transcription kit (Ambion, Carlsbad, CA, USA). The harvesting of stage V–VI oocytes from anesthetized female Xenopus laevis frog was previously described. Oocytes were injected with 50 nL of cRNA at a concentration of 1 ng/nL using a microinjector (Drummond Scientific, Broomall, PA, USA). The oocytes were incubated in a solution containing 96-mM NaCl, 2-mM KCl, 1.8-mM CaCl2, 2-mM MgCl2, and 5-mM HEPES (pH 7.4), supplemented with 50 mg/L gentamycin sulfate.
(§3) Two-electrode voltage-clamp recordings were performed at room temperature (18–22 °C) using a Geneclamp 500 amplifier (Molecular Devices, Downingtown, PA, USA) controlled by a pClamp data acquisition system (Axon Instruments, Union City, CA, USA). Whole cell currents from oocytes were recorded 1–4 days after injection. The bath solution’s composition was 96-mM NaCl, 2-mM KCl, 1.8-mM CaCl2, 2-mM MgCl2, and 5-mM HEPES (pH 7.4). Toxins were applied directly to the bath. Resistances of both electrodes were kept between 0.8 and 1.5 MΩ. The elicited currents were sampled at 20 kHz (Nav) or 2 kHz (Kv), filtered at 2 kHz (Nav) or 0.5 kHz (Kv) using a four-pole low-pass Bessel filter. Leak subtraction was performed using a -P/4 protocol. […] For the electrophysiological analysis, a number of protocols were applied from a holding potential of −90 mV with a start-to-start interval of 0.2 Hz. Kv1.1–Kv1.6 and Shaker currents were evoked by 250-ms depolarizations to 0 mV followed by a 250 ms pulse to −50 mV from a holding potential of −90 mV. Current traces of hERG channels were elicited by applying a +40 mV prepulse for 2 s followed by −120 mV for 2 s. Kv2.1, Kv3.1, and Kv4.2 currents were elicited by 250 ms pulses to +20 mV from a holding potential of −90 mV. Kv10.1 currents were evoked by 2-s depolarizing pulses to 0 mV from a holding potential of −90 mV. Sodium current traces were evoked by 100-ms depolarization to the voltage corresponding to maximal sodium current in control conditions. All data were analyzed using pClamp Clampfit 10.0 (Molecular Devices, Downingtown, PA, USA) and Origin 7.5 software (Originlab, Northampton, MA, USA).

[8] = test system: rKv4.2; test: Two-electrode voltage-clamp; assay type: cell-based, mammalian; conditions: 10 µM; Xenopus laevis oocytes; 18–22 °C
Text: as §2, §3

For “SEGTSCYIYHGVYGICKAKCAEDMKAMAGMGVCEGDLCCYKTPW (disulfide 6-38, 16-33, 20-39) [r-magnificamide]”, the “Antimicrobial activity, B. subtilis” value [1] was “Not active”, the “Antimicrobial activity, C. albicans” value [2] was “Not active” and the “Antimicrobial activity, E. coli” value [3] was “Not active”. For the same sequence, the “Antimicrobial activity, P. aeruginosa” value [4] was “Not active”, the “Antimicrobial activity, S. aureus” value [5] was “Not active” and the “Antimicrobial activity, overall” value [6] was “did not reveal activity against fungi, Gram-positive or Gram-negative bacteria”. The “Antimicrobial activity, overall” value ([6]; listed as recombinant analog of magnificamide) was “does not show antimicrobial or channel modulating activities”, the “Channel modulating activity, Nav1.8” value [7] was “Not active” and the “Channel modulating activity, Kv4.2” value [8] was “Not active”.
